From patent US9789096B2, “Methods and compositions for selective and targeted cancer therapy” (Board of Regents of the University of Texas System, priority 2013, dated 2017)
Read-outs that look alike come from different tables or passages of the source.

What was measured:
H2073 = assay: Cell viability dose-response, H2073; assay type: cell-based, human; settings: read-out: IC50 (uM) vs indicated non-small cell lung cancer cell line H2073
In short: (§1)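 Cells were plated at 15% confluence in RPMI-1640 with 5% FBS and 2 mM L-glutamine, then exposed to compound for 4 days. Viability was read as cellular ATP by CellTiter-Glo luminescence. Values are means of 2 replicates ±SEM, and IC50 comes from the dose-response curve.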

H1993 = assay: Cell viability dose-response, H1993; assay type: cell-based; settings: Homo sapiens, NCI-H1993; Tables 3 and 4; read-out: IC50 (uM) vs indicated non-small cell lung cancer cell line H1993
Description: (§2) FIG. 6A. […] Cell viability is plotted vs. compound concentration. Compound was added to cells plated at 15% confluence in 96-well plates in RPMI-1640 media supplemented with 5% Fetal Bovine Serum and 2 mM L-Glutamine. After 4 days of incubation, ATP levels were measured using Cell Titer Glo (Promega). Data are presented as the average of 2 replicates ±SEM.
(§3) Selectivity may be measured by the half maximal inhibitory concentration (IC50), which, as used herein, is a measure of the effectiveness of a compound in killing cells. This quantitative measure indicates how much of a particular compound is needed to kill a particular cell population by half (e.g., as indicated by the amount of ATP). […] The IC50 can be determined by constructing a dose-response curve. The lower the IC50, the higher the potency, and the greater the difference between IC50 values for different cell lines (e.g., sensitive lines vs. insensitive lines, and sensitive lines vs. normal lines) the greater the selectivity. […]
(§4) With this information, we synthesized and tested a series of small molecules derived in conception from the oxalamide and chromone scaffold including N-acyl ureas, as shown in Tables 6-8. Each compound was tested in a 12-point dose-response study starting at 50 micromolar and decreasing in 3-fold increments to sub-nanomolar concentrations, in duplicate. Additionally, one or more additional cell line was tested in the same way.

H2122 = assay: Cell viability dose-response, H2122; assay type: cell-based, human; settings: read-out: IC50 (uM) vs indicated non-small cell lung cancer cell line H2122
In short: (§5)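 Viability read as total ATP (Cell Titer Glo) following 4 days' compound exposure, with IC50 derived from dose-response curves. Duplicate 12-point series, top concentration 50 micromolar with 3-fold steps, on cells seeded at 15% confluence in RPMI-1640, 5% FBS, 2 mM L-glutamine.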

HCC95 = assay: Cell viability dose-response, HCC95; assay type: cell-based; settings: Homo sapiens, Tables 3 and 4, read-out: IC50 (uM) vs indicated non-small cell lung cancer cell line HCC95
Description: as §2, §3, §4

H460 = assay: Cell viability dose-response, H460; assay type: cell-based; settings: Homo sapiens, NCI-H460; Tables 3 and 4; read-out: IC50 (uM) vs indicated non-small cell lung cancer cell line H460
Description: as §2, §3, §4

H1155 = assay: Cell viability dose-response, H1155; assay type: cell-based; settings: Homo sapiens, NCI-H1155; Tables 3 and 4; read-out: IC50 (uM) vs indicated non-small cell lung cancer cell line H1155
Description: as §2, §3, §4

HCC44 = assay: Cell viability dose-response, HCC44; assay type: cell-based, human; settings: read-out: IC50 (uM) vs indicated non-small cell lung cancer cell line HCC44
In short: as §1

H2009 = assay: Cell viability dose-response, H2009; assay type: cell-based, human; settings: Homo sapiens, NCI-H2009; Tables 3 and 4; read-out: IC50 (uM) vs indicated non-small cell lung cancer cell line H2009
In short: as §1

HBEC30KT = assay: Cell viability (ATP, Cell Titer Glo, 4 days), HBEC30KT; assay type: cell-based, human; settings: Homo sapiens, Tables 3 and 4; read-out: HBEC30KT IC50
Description: as §2, §3

HCC4017 = assay: Cell viability dose-response, HCC4017; assay type: cell-based, human; settings: read-out: IC50 (uM) vs indicated non-small cell lung cancer cell line HCC4017
Description: as §2, §3, §4

HCC366 = assay: Cell viability dose-response, HCC366; assay type: cell-based; settings: Homo sapiens, Tables 3 and 4, read-out: IC50 (uM) vs indicated non-small cell lung cancer cell line HCC366
Description: as §2, §3, §4

H1819 = assay: Cell viability dose-response, H1819; assay type: cell-based, human; settings: Homo sapiens, NCI-H1819, Tables 3 and 4; read-out: IC50 (uM) vs indicated non-small cell lung cancer cell line H1819
In short: as §5

H1395 = assay: Cell viability dose-response, H1395; assay type: cell-based; settings: Homo sapiens, NCI-H1395; Tables 3 and 4; read-out: IC50 (uM) vs indicated non-small cell lung cancer cell line H1395
Description: as §2, §3, §4

[1] = Homo sapiens, NCI-H2073, Tables 3 and 4
[2] = Homo sapiens, NCI-H2122, Tables 3 and 4
[3] = Homo sapiens, HCC44, Tables 3 and 4
[4] = Homo sapiens, HCC4017, Tables 3 and 4

SMILES	IC50 (H2073; [1]) [µM]	IC50 (H1993) [µM]	IC50 (H2122; [2]) [µM]	IC50 (HCC95) [µM]	IC50 (H460) [µM]	IC50 (H1155) [µM]	IC50 (HCC44; [3]) [µM]	IC50 (H2009) [µM]	IC50 (HBEC30KT) [µM]	IC50 (H2073; Tables 3 and 4) [µM]	IC50 (HCC4017; [4]) [µM]	IC50 (HCC366) [µM]	IC50 (H2122; Tables 3 and 4) [µM]	IC50 (HCC44; Tables 3 and 4) [µM]	IC50 (HCC4017; Tables 3 and 4) [µM]	IC50 (H1819) [µM]	IC50 (H1395) [µM]
CCN(CC)c1ccc(C(=O)Nc2nc3ccc4ccccc4c3s2)cc1 [SW018825]	0.424	47.5	0.129	2.23	–	–	–	–	–	–	–	–	–	–	–	–	–
COc1ccc2nc(NC(=O)c3c(F)ccc(OC)c3F)sc2c1 [SW202775-1]	5.96	8.87	6.53	3.19	48	35.5	16.9	–	–	–	–	–	–	–	–	–	–
COc1ccc2nc(NC(=O)c3ccc([N+](=O)[O-])cc3)sc2c1 [SW001282-2]	0.752	–	0.159	19.6	0.512	–	30.1	2.81	49.2	–	–	–	–	–	–	–	–
NC(=O)c1c(NC(=O)COc2ccccc2)sc2c1CCCC2 [SW119324]	–	> 8	–	28.5	–	44.5	34.4	0.881	10.4	–	–	–	–	–	–	–	–
CCOC(=O)c1c(NC(=O)c2ccc(F)cc2)sc2c1CCCC2 [SW202859-1]	–	47.1	–	31.4	–	–	–	–	38.2	–	–	–	–	–	–	–	–
COc1ccc2sc(NC(=O)c3ccc([N+](=O)[O-])cc3)nc2c1 [SW004969]	0.658	–	0.21	0.2	0.521	–	–	5.5	–	–	–	–	–	–	–	–	–
COC(=O)c1ccc(C(=O)Nc2nc3ccc(N)cc3s2)cc1 [SW001296]	–	–	35.1	–	4.46	–	0.34	–	–	3.72	–	–	–	–	–	–	–
O=C(Nc1nc2ccc(O)cc2s1)c1c(F)ccc(O)c1F [SW202860-1]	18.1	35.6	4.05	44.9	47.8	49.2	15.1	41.7	–	–	47.5	42.6	–	–	–	–	–
O=C(Nc1nc2ccc(F)cc2s1)c1sc2ccccc2c1Cl [SW147703]	1.12	13.5	3.3	32.4	–	13.3	37.5	34.5	33.3	–	–	–	–	–	–	–	–
O=C(Nc1ccccc1N1CCCC1)c1sc2ccccc2c1Cl [SW174698]	–	–	5.12	–	–	–	3.06	–	4950	–	403	–	–	–	–	–	–
O=C(Nc1cccc(NC(=O)c2sc3ccccc3c2Cl)c1)c1ccco1 [SW023008-2]	–	–	1.27	–	–	–	105	–	82.5	–	809	–	–	–	–	–	–
CCOC(=O)c1c(NC(=O)c2ccc([N+](=O)[O-])cc2)sc2c1CCCC2 [SW108364-2]	24.3	23.4	5.92	–	–	–	35.2	15.8	35.2	–	35.2	–	–	–	–	–	–
COc1ccc2nc(NC(=O)c3cccnc3)sc2c1 [SW202774-1]	1.34	25.5	1.08	0.336	1.31	35.2	1.01	36.6	46.7	–	–	–	–	–	–	–	–
O=C(Nc1cccc(NC(=O)c2sc3ccccc3c2Cl)c1)c1cccc(Cl)c1 [SW023441-2]	–	–	–	–	–	–	–	–	31.8	–	–	–	0.473	27.7	46	–	–
O=C(Nc1ccccc1F)c1sc2ccccc2c1Cl [SW118094]	–	–	1.05	–	0.606	–	0.09	–	34.1	–	0.322	124	–	–	–	1.21	–
COc1ccccc1NC(=O)c1sc2ccccc2c1Cl [SW004989]	0.052	> 5	0.801	–	–	–	56.8	> 8	–	–	249	–	1.02	38.7	–	43.7	–
O=C(Nc1nc2c(s1)CCCC2)c1ccc(Cc2ccccc2)cc1 [SW011940]	2.63	12.7	0.037	5.86	2.13	21.7	50.6	7	–	–	4.26	–	–	–	–	46.3	35.6
NC(=O)c1ccccc1NC(=O)c1sc2ccccc2c1Cl [SW119800]	–	–	2.66	–	–	–	206	–	85.4	–	467	–	–	–	–	–	–
CCOc1cc(OCC)cc(C(=O)Nc2nc3ccc(OC)cc3s2)c1 [SW202776-1]	4.56	–	–	8.15	–	46.2	–	15.3	–	–	–	–	–	–	–	–	–
O=C(Nc1ccc(F)cc1)c1sc2ccccc2c1Cl [SW006505]	–	–	1.7	–	–	–	0.657	–	63.9	–	262	–	–	–	–	–	–
NC(=O)c1c(NC(=O)c2ccc(Br)o2)sc2c1CCCC2 [SW172864]	0.129	0.871	–	43.6	35.1	–	2.52	3.2	12.6	–	1.71	–	–	–	–	–	44.5
